Several values for one entry are separate records, joined by “and”; a condition that tells them apart may be missing. Identical values can stand only once. Inconclusive results are not listed.
System: C3AKF1 mice, osteogenic sarcoma HE10734 s.c., tumor weight T/C
Assay: NCI In Vivo Anticancer Drug Screen. Data for tumor model Osteogenic Sarcoma HE 10734 (subcutaneous) in C3AKF1 (CHKRF1) mice
Conditions: endpoint: mean tumor weight, schedule: Q01DX010 (ip), higher = larger tumour
Protocol: The antitumor activity of compounds was measured in mice bearing transplantable tumors. Survival or tumor size were measured and the results are expressed as the measurement made in the treated group (T) divided by the measurement made in the vehicle treated control group (C). The tumor model used in this assay is Osteogenic Sarcoma HE 10734 (subcutaneous) in C3AKF1 (CHKRF1) mice

[1] = dose: 25.0 mg/kg/injection, vehicle: saline
[2] = dose: 50.0 mg/kg/injection, vehicle: saline
[3] = dose: 100.0 mg/kg/injection, vehicle: saline
[4] = dose: 35.0 mg/kg/injection, vehicle: carboxymethylcellulose (CMC)
[5] = dose: 35.0 mg/kg/injection, vehicle: saline
[6] = dose: 3.0 mg/kg/injection, vehicle: saline
[7] = dose: 75.0 mg/kg/injection, vehicle: saline
[8] = dose: 16.0 mg/kg/injection, vehicle: carboxymethylcellulose (CMC)
[9] = dose: 24.0 mg/kg/injection, vehicle: carboxymethylcellulose (CMC)
[10] = dose: 55.0 mg/kg/injection, vehicle: carboxymethylcellulose (CMC)
[11] = dose: 85.0 mg/kg/injection, vehicle: carboxymethylcellulose (CMC)
[12] = dose: 125.0 mg/kg/injection, vehicle: carboxymethylcellulose (CMC)
[13] = dose: 12.0 mg/kg/injection, vehicle: saline
[14] = dose: 12.5 mg/kg/injection, vehicle: saline
[15] = dose: 1.5 mg/kg/injection, vehicle: carboxymethylcellulose (CMC)
[16] = dose: 6.0 mg/kg/injection, vehicle: saline

Question: For O=P1(N(CCCl)CCCl)NCCCO1 (stereo not given), which T/C (dose: 3.6 mg/kg/injection, vehicle: saline) is on record?
Answer: 172 % of control

Question: And the T/C (dose: 5.5 mg/kg/injection, vehicle: saline)?
Answer: 151 % of control

Question: What about the T/C (dose: 8.3 mg/kg/injection, vehicle: saline) of the same molecule?
Answer: 93 % of control

Question: And the T/C [1]?
Answer: 22 % of control

Question: And the T/C [2]?
Answer: 5 % of control

Question: What about the T/C [3] of the same molecule?
Answer: 2 % of control

Question: How did the T/C [4] turn out when O=C(O)C(=O)c1ccc(-c2ccccc2)cc1 was run?
Answer: 69 % of control

Question: For O=c1c[n+](-c2ccccc2)[nH]o1, which T/C (dose: 22.5 mg/kg/injection, vehicle: carboxymethylcellulose (CMC)) is on record?
Answer: 87 % of control

Question: What about the T/C (dose: 45.0 mg/kg/injection, vehicle: carboxymethylcellulose (CMC)) of the same molecule?
Answer: 110 % of control

Question: What about the T/C (dose: 90.0 mg/kg/injection, vehicle: carboxymethylcellulose (CMC)) of the same molecule?
Answer: 83 % of control

Question: What about the T/C (dose: 180.0 mg/kg/injection, vehicle: carboxymethylcellulose (CMC)) of the same molecule?
Answer: 70 % of control

Question: What does the source list for O=C(O)C1(NO)CCCC1?
Answer: T/C (dose: 15.0 mg/kg/injection, vehicle: saline): 88 % of control; T/C (dose: 23.0 mg/kg/injection, vehicle: saline): 112 % of control; T/C [5]: 71 % of control; T/C (dose: 112.0 mg/kg/injection, vehicle: saline): 29 % of control

Question: How did the T/C [3] turn out when CCCCSc1nc(N)nc2c1ncn2CC(C)CC (stereo not given) was run?
Answer: 109 % of control

Question: And the T/C (dose: 200.0 mg/kg/injection, vehicle: saline)?
Answer: 57 % of control

Question: How did the T/C (dose: 0.75 mg/kg/injection, vehicle: saline) turn out when COc1ccc(Nc2ccnc3cc(Cl)ccc23)cc1CN(CCCl)CCCl was run?
Answer: 73 % of control

Question: What about the T/C (dose: 1.5 mg/kg/injection, vehicle: saline) of the same molecule?
Answer: 57 % of control

Question: What about the T/C [6] of the same molecule?
Answer: 69 % of control

Question: How did the T/C [2] turn out when c1ccc(CSc2ncnc3nc[nH]c23)nc1 was run?
Answer: 76 % of control and 81 % of control

Question: What about the T/C [3] of the same molecule?
Answer: 29 % of control and 39 % of control

Question: Which T/C (dose: 65.0 mg/kg/injection, vehicle: carboxymethylcellulose (CMC)) does the source give for CCCCCCCCCCCCO[P+](=O)OCCCCCCCCCCCC here?
Answer: 81 % of control

Question: What about the T/C (dose: 95.0 mg/kg/injection, vehicle: carboxymethylcellulose (CMC)) of the same molecule?
Answer: 55 % of control

Question: And the T/C (dose: 145.0 mg/kg/injection, vehicle: carboxymethylcellulose (CMC))?
Answer: 51 % of control

Question: And the T/C (dose: 220.0 mg/kg/injection, vehicle: carboxymethylcellulose (CMC))?
Answer: 48 % of control

Question: And the T/C (dose: 222.0 mg/kg/injection, vehicle: carboxymethylcellulose (CMC))?
Answer: 36 % of control

Question: Nc1ncnc2c1ncn2C1CCCO1 (stereo not given) was tested. Which T/C [7] did it give?
Answer: 86 % of control

Question: And the T/C (dose: 150.0 mg/kg/injection, vehicle: saline)?
Answer: 54 % of control

Question: Which results are given for N#CCSc1nc(N)nc2nc[nH]c12?
Answer: T/C (dose: 2.0 mg/kg/injection, vehicle: carboxymethylcellulose (CMC)): 90 % of control; T/C (dose: 4.0 mg/kg/injection, vehicle: carboxymethylcellulose (CMC)): 107 % of control; T/C (dose: 8.0 mg/kg/injection, vehicle: carboxymethylcellulose (CMC)): 86 % of control; T/C [8]: 91 % of control; T/C [9]: 113 % of control; T/C [4]: 93 % of control; T/C [10]: 90 % of control and 100 % of control; T/C [11]: 44 % of control; T/C [12]: 22 % of control

Question: What does the source list for O=c1[nH]c2cc(Cl)c(Cl)cc2o1?
Answer: T/C (dose: 10.0 mg/kg/injection, vehicle: carboxymethylcellulose (CMC)): 84 % of control; T/C [8]: 113 % of control; T/C [9]: 74 % of control; T/C (dose: 37.0 mg/kg/injection, vehicle: carboxymethylcellulose (CMC)): 105 % of control and 117 % of control; T/C [10]: 80 % of control; T/C [11]: 98 % of control

Question: Which results are given for CN(C)CCCN1c2ccccc2Sc2ccc(C(F)(F)F)cc21?
Answer: T/C [13]: 90 % of control; T/C [1]: 90 % of control

Question: Which results are given for CC(/C=N/N=C(N)N)=N/N=C(N)N?
Answer: T/C [14]: 85 % of control; T/C [1]: 63 % of control

Question: With CCCCCCCCCCCCCCCCC(C(=O)O)C(O)(CC(=O)O)C(=O)O (stereo not given) as the molecule, how does the T/C (dose: 22.0 mg/kg/injection, vehicle: carboxymethylcellulose (CMC)) read?
Answer: 100 % of control

Question: What about the T/C [4] of the same molecule?
Answer: 68 % of control

Question: For CSc1ncc(Br)c(Sc2nc(N)nc3nc[nH]c23)n1, which T/C [15] is on record?
Answer: 103 % of control

Question: And the T/C (dose: 3.0 mg/kg/injection, vehicle: carboxymethylcellulose (CMC))?
Answer: 87 % of control

Question: And the T/C (dose: 6.0 mg/kg/injection, vehicle: carboxymethylcellulose (CMC))?
Answer: 55 % of control

Question: And the T/C (dose: 12.0 mg/kg/injection, vehicle: carboxymethylcellulose (CMC))?
Answer: 77 % of control

Question: How did the T/C (dose: 150.0 mg/kg/injection, vehicle: carboxymethylcellulose (CMC)) turn out when O=C(O)Cc1ccc(C2CCCCC2)cc1 was run?
Answer: 95 % of control

Question: Which results are given for CCCNC(=NC)c1ccc(NC(=O)c2ccc(C(=O)Nc3ccc(C(=NC)NCCC)cc3)cc2)cc1?
Answer: T/C [6]: 91 % of control; T/C [16]: 46 % of control; T/C [13]: 46 % of control

Question: With Cc1nc(N)nc(N)c1-c1ccc(Cl)c(Cl)c1 as the molecule, how does the T/C (dose: 0.09 mg/kg/injection, vehicle: carboxymethylcellulose (CMC)) read?
Answer: 94 % of control

Question: What about the T/C (dose: 0.18 mg/kg/injection, vehicle: carboxymethylcellulose (CMC)) of the same molecule?
Answer: 103 % of control

Question: And the T/C (dose: 0.37 mg/kg/injection, vehicle: carboxymethylcellulose (CMC))?
Answer: 88 % of control

Question: What about the T/C [15] of the same molecule?
Answer: 21 % of control

Question: How did the T/C (dose: 112.0 mg/kg/injection, vehicle: carboxymethylcellulose (CMC)) turn out when CCOC(=O)Sc1ncnc2nc[nH]c12 was run?
Answer: 13 % of control

Question: Which T/C (dose: 7.0 mg/kg/injection, vehicle: saline) does the source give for COc1cc([C@@H]2c3cc4c(cc3[C@H](O)[C@H]3COC(=O)[C@@H]23)OCO4)cc(OC)c1OC here?
Answer: 75 % of control

Question: Which T/C [14] does the source give for CCN(CC)Cc1cc(Nc2c3ccccc3nc3cc(Cl)ccc23)ccc1O here?
Answer: 78 % of control

Question: What about the T/C [1] of the same molecule?
Answer: 111 % of control

Question: And the T/C [2]?
Answer: 70 % of control

Question: What does the source list for C=CCn1c(=O)n(CC=C)c(=O)n(CC=C)c1=O?
Answer: T/C (dose: 31.0 mg/kg/injection, vehicle: saline): 84 % of control; T/C (dose: 62.0 mg/kg/injection, vehicle: saline): 94 % of control; T/C (dose: 125.0 mg/kg/injection, vehicle: saline): 69 % of control; T/C (dose: 375.0 mg/kg/injection, vehicle: saline): 31 % of control

Question: Which T/C [2] does the source give for CCc1c(CC(=O)O)c2cc(C)ccc2n1Cc1ccc(Cl)cc1 here?
Answer: 79 % of control

Question: C=CC(=O)NCNC(=O)C=C was tested. Which T/C (dose: 37.5 mg/kg/injection, vehicle: saline) did it give?
Answer: 66 % of control

Question: And the T/C [7]?
Answer: 65 % of control

Question: What does the source list for COc1ccc(-c2c(CC(=O)O)c3cc(OC)ccc3n2Cc2ccc(Cl)cc2)cc1?
Answer: T/C [12]: 116 % of control; T/C (dose: 250.0 mg/kg/injection, vehicle: carboxymethylcellulose (CMC)): 66 % of control; T/C (dose: 500.0 mg/kg/injection, vehicle: carboxymethylcellulose (CMC)): 54 % of control; T/C (dose: 1000.0 mg/kg/injection, vehicle: carboxymethylcellulose (CMC)): 56 % of control

Question: How did the T/C [16] turn out when [I][Hg][CH2]C1COCC([CH2][Hg][I])O1.[I][Hg][CH2]C1COCC([CH2][Hg][I])O1 (stereo not given) was run?
Answer: 83 % of control

Question: What about the T/C [13] of the same molecule?
Answer: 52 % of control

Question: What does the source list for Nc1nc(SCc2ccccc2Cl)c2ncn(C3OC(CO)C(O)C3O)c2n1 (stereo not given)?
Answer: T/C (dose: 12.5 mg/kg/injection, vehicle: carboxymethylcellulose (CMC)): 90 % of control; T/C (dose: 25.0 mg/kg/injection, vehicle: carboxymethylcellulose (CMC)): 81 % of control; T/C (dose: 50.0 mg/kg/injection, vehicle: carboxymethylcellulose (CMC)): 61 % of control

Question: CC(CCc1cccc2ccccc12)(C(=O)O)C(=O)O was tested. Which T/C [5] did it give?
Answer: 68 % of control

Question: And the T/C [2]?
Answer: 157 % of control
